These results are taken from ChEMBL document CHEMBL1148069, “The punaglandins: 10-chloroprostanoids from the octocoral Telesto riisei” (J Nat Prod, 1994).

Assay [1] has as its system L1210. Briefly: Cytotoxicity against mouse L1210 cells. Format: functional, cell-based.
The test system of assay [2] is Ehrlich. Briefly: Cytotoxicity against mouse EAC cells. Format: functional, cell-based.

Active and inactive are the calls of the source. The calls are words filed in the database; no cut-off is given here.

As for `CCCCC/C=C\C[C@@]1(O)C=C(Cl)C(=O)/C1=C/[C@H](OC(C)=O)[C@H](CCCC(=O)OC)OC(C)=O`, the outcome in assay [1] and in assay [2] was Active.

`CC/C=C\C/C=C\C[C@@]1(O)C=C(Cl)C(=O)/C1=C/[C@H](OC(C)=O)[C@H](CCCC(=O)OC)OC(C)=O`: the outcome in assay [1] and in assay [2] was Active.
